Test results as given in patent publication US6652921B2, “Wood containing fixed sorbic acid or sorbic acid salts” (Nutrinova Nutrition Specialties & Food Ingredients GmbH, priority 2000, dated 2003).

Legend:
[1] = cited from earlier work; for Solubility in water: water (cold water for sorbic acid)
[2] = humans; internationally established; cited from earlier work
[3] = mean body weight of 60 kg
Description: Sorbic acid and its salts are accordingly permitted for food use by international committees and permitted worldwide as a preservative for direct addition to foods. The internationally established tolerable daily dose for humans of up to 25 mg/kg of body weight corresponds to a tolerable consumption by adults of up to 1.5 g per day (at a mean body weight of 60 kg).

fungi = conditions: cited from earlier work
wood-damaging fungi = conditions: cited from earlier work

Question: Which Solubility in water [1] does the source give for `C/C=C/C=C/C(=O)[O-].[K+]` [Potassium sorbate] here?
Answer: dissolves very readily in water

Question: Which “Solubility in liquid alcohols” value ([1]; liquid alcohols) does the source give for `C/C=C/C=C/C(=O)O` [Sorbic acid, trans, trans-2,4-hexadienoic acid] here?
Answer: good

Question: And the Solubility in water [1]?
Answer: dissolves only sparingly in cold water

Question: What about the Tolerable daily dose [2] of the same molecule?
Answer: up to 25 mg/kg of body weight

Question: And the “Tolerable consumption by adults” value [3]?
Answer: up to 1.5 g per day

Question: For `C/C=C/C=C/C(=O)[O-].[Na+]` [sodium sorbate], which “Growth of fungi on treated bamboo” value (fungi; after a few days) is on record?
Answer: growth of fungi and poorer results than the dehydroacetic acid

Question: And the “Activity depending on pH” value (fungi; bamboo)?
Answer: only active in these studies at a pH of 3.0

Question: With `C/C=C/C=C/C(=O)[O-].C/C=C/C=C/C(=O)[O-].[Zn+2]` [zinc salt of sorbic acid] as the molecule, how does the “Activity as wood preservative” value (wood-damaging fungi) read?
Answer: inactive
